Experimental data: ChEMBL document CHEMBL1133938, “Parallel solid-phase synthesis of zatebradine analogues as potential I(f) channel blockers” (2001)

Species on record: Cavia porcellus
Test: Inhibitory activity to reduce the spontaneous beating of isolated guinea-pig atria in a concentration-dependent manner at the dose of 3 uM
Type: functional

Structure (SMILES) | Max inhibition | inhibition at 3 µM
C=CCN(CCCN1C=Cc2cc(OC)c(OC)cc2CC1=O)CCc1ccccc1 | 71% | 53%
COc1ccc(CCNCCCN2C=Cc3cc(OC)c(OC)cc3CC2=O)cc1 | 69% | 60%
COc1ccc(CCNCCCN2C=Cc3cc(OC)c(OC)cc3CC2=O)cc1OC | 77% | 59%
C=CCN(CCCN1C=Cc2cc(OC)c(OC)cc2CC1=O)CCc1ccc(OC)c(OC)c1 | 69% | 34%
COc1ccc(CCN(CCCN2C=Cc3cc(OC)c(OC)cc3CC2=O)Cc2ccccc2)cc1OC | 59% | 25%
C=CCN(CCCN1C=Cc2cc(OC)c(OC)cc2CC1=O)CCc1ccc(OC)cc1 | 81% | 80%
C=CCN(CCCc1ccccc1)CCCN1C=Cc2cc(OC)c(OC)cc2CC1=O | 100% | 44%
COc1cc2c(cc1OC)CC(=O)N(CCCNCCCc1ccccc1)C=C2 | 60% | 31%
C=CCN(CCCN1C=Cc2cc(OC)c(OC)cc2CC1=O)CCc1ccc(Cl)cc1 | 60% | 31%
COc1cc2c(cc1OC)CC(=O)N(CCCNCCc1ccccc1)C=C2 | 81% | 60%
COc1cc2c(cc1OC)CC(=O)N(CCCNCCCCc1ccccc1)C=C2 | 84% | 43%
C=CCN(CCCN1C=Cc2cc(OC)c(OC)cc2CC1=O)CCOc1ccccc1 | 100% | 42%
COc1cc2c(cc1OC)CC(=O)N(CCCNCCc1ccc(Cl)cc1)C=C2 | 68% | 60%
COc1ccc(CCNCCCN2CCc3cc(OC)c(OC)cc3CC2=O)cc1OC | 68% | 40%
C=CCN(CCCCc1ccccc1)CCCN1C=Cc2cc(OC)c(OC)cc2CC1=O | 91% | 54%
COc1cc2c(cc1OC)CC(=O)N(CCCNCCOc1ccccc1)C=C2 | 80% | 53%
